Blank lines part the entries; values can stand above or below the molecule they belong to.
Tests used:
[1] = system: NIH3T3 murine fibroblasts; experiment: In vitro transfection with LPD formulations, luciferase reporter assay; assay type: cell-based; details: NIH3T3 cells; LPD with peptide ME27 and plasmid pCI-Luc; FIG. 1
Protocol: (§1) Cells tested included 1HAEo-human airway epithelial cells, NIH3T3 murine fibroblasts, and Neuro2A murine neuroblastoma cells. Cells were seeded into 96-well plates at approximately 2×10^4 cells per well, then incubated overnight at 37° C. in complete growth medium. The following day, lipopolyplex (LPD) formulations were prepared essentially as described previously (Hart et al., 1998), by mixing the components in the following order: 50 μl of lipid (L) at 80 μg/ml in OptiMEM, 70 μl of peptide (P) at 110 μg/ml in OptiMEM and 50 μl of plasmid pCI-Luc (D) at 40 μg/ml in OptiMEM corresponding to a weight ratio of 2:4:1, respectively. […] The cells were incubated with the complexes for 4 h at 37° C. before replacing with fresh media for 24 h, after which reporter gene expression was analyzed by luciferase assay (Promega, Madison, Wis., USA). […]
(§2) Cells were washed once with PBS before the addition of 20 μl of 1× Reporter Lysis Buffer (Promega, Madison, Wis., USA) to the cells for 20 min at 4° C. before freezing at −80° C. for at least 30 min, followed by thawing at room temperature. Then the luciferase activity was measured during 10 seconds using the Luciferase Assay System (Promega, Madison, Wis., USA) and an Optima Fluostar plate reader (BMG Labtech). […] In vitro luciferase activity was expressed as Relative Light Units (RLU) per milligram of protein (RLU/mg).

[2] = Size of LPD nanoparticles by dynamic light scattering; assay type: physicochemical; details: peptide ME27; weight ratio 0.75:4:1 (L:P:D); FIG. 7
Protocol: The size of LPD nanoparticles containing peptides ME27 with lipids FMM30 or FMM30/DPE were determined at different weight ratios of liposome to DNA (w/w) by dynamic light scattering using a NanoZS Zetasizer (Malvern).

[3] = Transmission electron microscope imaging of LPD particles; assay type: physicochemical; details: peptide ME27; weight ratio 0.75:4:1 (L:P:D); FIG. 5 and FIG. 6
Source text: Transmission Electon Microscope images of LPD particles comprising FMM30 with peptide ME27 at a weight ratio of 0.75:4:1 (L:P:D) is shown in FIG. 5 (FMM30-PD-0.75) and lipids FMM30/DOPE at the same weight ratio is shown in FIG. 6 (FMM30/DOPE-PD 0.75).

[4] = system: 1HAEo- human airway epithelial cells; experiment: In vitro transfection with LPD formulations, luciferase reporter assay; assay type: cell-based; details: 1HAEo- cells; LPD with peptide ME27 and plasmid pCI-Luc; FIG. 2
Protocol: as §1, §2

COS.7 cells = details: cited from earlier work
many cell types = details: cited from earlier work
[5] = cited from earlier work

transfection levels [1]: far higher than the bi-chain lipid CH300
size of LPD nanoparticles [2]: approximately 80 nm
Structure (SMILES): CCCCCCCC/C=C\CCCCCCCCOCC(C[N+](C)(C)CCOCCOCCOCCOC(=O)CCCCCCC/C=C\CCCCCCCC)OCCCCCCCC/C=C\CCCCCCCC (stereo not drawn) [FMM30, (9Z)—N-(2,3-bis((9Z)-octadecenyloxy)propyl)-N,N-dimethyl-13-oxo-3,6,9,12-tetraoxatriacont-21-en-1-aminium bromide]
particle size and shape in TEM images [3]: quite similar sizes with a combination of shapes including rods and spheres
transfection levels [4]: far higher than the bi-chain lipid CH300

Structure (SMILES): CCCCCCCCCCCCCCOCC(C[N+](C)(C)CCO)OCCCCCCCCCCCCCC.[Br-] (stereo not drawn) [DMRIE 7]
transfection activity of hydroxyalkyl cytofectins (COS.7 cells; compared with DOTMA 1): one of the more efficient lipids

Structure (SMILES): CCCCCCCC/C=C\CCCCCCCC(=O)OCC(C[N+](C)(C)C)OC(=O)CCCCCCC/C=C\CCCCCCCC (stereo not drawn) [DOTAP 4]
levels of transfection in vitro (many cell types): comparable levels of transfection

Structure (SMILES): CCCCCCCC/C=C\CCCCCCCCOCC(C[N+](C)(C)C)OCCCCCCCC/C=C\CCCCCCCC.[Cl-] (stereo not drawn) [DOTMA 1]
levels of transfection in vitro (many cell types): comparable levels of transfection
transfection activities in vivo [5]: exhibited higher transfection activities

Structure (SMILES): CCCCCCCC/C=C\CCCCCCCCOCC(C[N+](C)(C)CCO)OCCCCCCCC/C=C\CCCCCCCC.[Br-] (stereo not drawn) [DORIE 6]
transfection efficacies in COS.7 cells (COS.7 cells; co-formulation with helper lipid DOPE 2, compared to lipids with hydroxypropyl-hydroxypentyl groups): higher transfection efficacies
